Consider 24 molecules from ChEMBL document CHEMBL5154782, “Discovery of Potent PROTACs Targeting EGFR Mutants through the Optimization of Covalent EGFR Ligands” (J Med Chem, 2022).

SMILES strings stand for the structures.

In experiment [1] the test system is HCC827. Nature of the experiment: Antiproliferative activity against human HCC827 cells expressing EGFR deletion19 mutant assessed as inhibition of cell proliferation incubated for 72 hrs by MTT assay. In kind it is functional, cell-based. The conditions noted are these: HCC827, 72 h.
For experiment [2], the system named is NCI-H1975. Nature of the experiment: Antiproliferative activity against human NCI-H1975 cells expressing EGFR L858R/T790M mutant assessed as inhibition of cell proliferation incubated for 72 hrs by MTT assay. In kind it is functional, cell-based. As to conditions: NCI-H1975, 72 h.
In experiment [3] the target is von Hippel-Lindau disease tumor suppressor/Epidermal growth factor receptor (Homo sapiens, UniProt P00533+P40337, L858R/T790M). Description: Protac activity at VHL/EGFR L858R/T790M mutant (unknown origin) assessed as inhibition of EGFR incubated for 40 mins in presence of ATP by Kinase Glo luminescence assay. The experiment is classed as protein assay.
Experiment [4] deals with von Hippel-Lindau disease tumor suppressor/Epidermal growth factor receptor (Homo sapiens), P00533+P40337 [L858R,T790M]. Nature of the experiment: Protac activity at VHL/EGFR L858R/T790M mutant in human NCI-H1975 cells assessed as induction of EGFR degradation at 1000 nM incubated for 24 hrs by Western blot analysis relative to control. The experiment is classed as cell-based.

The test system is the same in experiment [5]. Description: Protac activity at VHL/[…] cells assessed as induction of EGFR degradation at 1000 nM incubated for 24 hrs by Western blot analysis relative to control. In kind it is cell-based.
The test system is the same in experiment [6]. Description: Protac activity at VHL/[…] cells assessed as induction of EGFR degradation at 100 nM incubated for 24 hrs by Western blot analysis relative to control. The experiment is classed as cell-based.
For experiment [7], the system named is A-431. Nature of the experiment: Antiproliferative activity against human A-431 cells expressing EGFR wildtype assessed as inhibition of cell proliferation incubated for 72 hrs by MTT assay. The experiment is classed as functional, cell-based. As to conditions: A-431, 72 h.
For experiment [8], the system named is von Hippel-Lindau disease tumor suppressor/Epidermal growth factor receptor (Homo sapiens), P00533+P40337 [L858R,T790M]. Description: Protac activity at VHL/EGFR L858R/T790M mutant in human NCI-H1975 cells assessed as induction of EGFR degradation at 100 nM incubated for 24 hrs by Western blot analysis relative to control. In kind it is cell-based.
For experiment [9] the test system is unchanged. Description: Protac activity at VHL/EGFR L858R/T790M mutant in human NCI-H1975 cells assessed as induction of EGFR degradation at 10 nM incubated for 24 hrs by Western blot analysis relative to control. In kind it is cell-based.
Experiment [10] concerns von Hippel-Lindau disease tumor suppressor/Epidermal growth factor receptor (Homo sapiens), P00533+P40337 [UNDEFINED MUTATION]. Description: Protac activity at VHL/EGFR/deletion19 in human HCC827 cells assessed as induction of EGFR degradation at 30 nM incubated for 24 hrs by Western blot analysis relative to control. The experiment is classed as cell-based.
The test system is the same in experiment [11]. Description: Protac activity at VHL/EGFR/deletion19 in human HCC827 cells assessed as induction of EGFR degradation at 3 nM incubated for 24 hrs by Western blot analysis relative to control. In kind it is cell-based.

As to `C=CC(=O)N1CC[C@@H](n2c(Nc3ccccc3)nc3cnc(Nc4ccc(N5CCN(C)CC5)cc4)nc32)C1`, the IC50 in experiment [1] stood at 1.16 nM; in experiment [2], 290 nM.
Regarding `COc1cc(N2CCN(CC(=O)NCCCCCCC(=O)N[C@H](C(=O)N3C[C@H](O)C[C@H]3C(=O)NCc3ccc(-c4scnc4C)cc3)C(C)(C)C)CC2)c(NC(=O)/C(C#N)=C/C2CC2)cc1Nc1nccc(-c2cn(C)c3ccccc23)n1`, the IC50 in experiment [1], in [3] and in experiment [2] was above 10000 nM throughout.
As for `C=CC(=O)N1CCC[C@H](n2c(Nc3ccccc3)nc3cnc(Nc4ccc(N5CCN(CCCCCCCC(=O)N[C@H](C(=O)N6C[C@@H](O)C[C@H]6C(=O)N[C@@H](C)c6ccc(-c7scnc7C)cc6)C(C)(C)C)CC5)cc4)nc32)C1`, the concentration for half-maximal inhibition (IC50) came to 1.83 nM in experiment [1] and 41 nM in experiment [2].
With `C=CC(=O)Nc1cccc(-n2c(Nc3ccccc3)nc3cnc(Nc4ccc(N5CCN(C)CC5)cc4)nc32)c1`, the IC50 in [1] came to 0.38 nM; in experiment [2], 41 nM.
In the case of `COc1cc(N(C)CCN(C)C)c(NC(=O)/C=C/CN(C)CCCCCCCCCC(=O)N[C@H](C(=O)N2C[C@H](O)C[C@H]2C(=O)NCc2ccc(-c3scnc3C)cc2)C(C)(C)C)cc1Nc1nccc(-c2cn(C)c3ccccc23)n1`, the Activity in [4] was below 20%; in experiment [5], 30%; in [6], below 20%; in experiment [8] it was below 20%. Further, the IC50 in experiment [1] is 61 nM; in experiment [7], 840 nM; in experiment [2] it was 985 nM.
Take `CN1CCN(c2ccc(Nc3ncc4nc(Nc5ccccc5)n(C5CCCC5)c4n3)cc2)CC1`: the IC50 in [1] turned out to be 0.93 nM; in [2], 342 nM.
As for `C=CC(=O)Nc1cc(Nc2nccc(-c3cn(C)c4ccccc34)n2)c(OC)cc1N(CCCCCCC(=O)N[C@H](C(=O)N1C[C@H](O)C[C@H]1C(=O)NCc1ccc(-c2scnc2C)cc1)C(C)(C)C)CCN(C)C`, the Activity in experiment [4] is below 20%; in experiment [5], 34%; in [6] it was below 28%; in experiment [8], below 20%. Also, the results for the IC50 in [1], in experiment [7] and in experiment [2] were 75 nM, 1550 nM and 760 nM, respectively.
On to `C=CC(=O)N1CCC(n2c(Nc3ccccc3)nc3cnc(Nc4ccc(N5CCN(C)CC5)cc4)nc32)CC1`, for which the values for the IC50 in experiment [1] and in experiment [2] were 2.19 nM and 360 nM, respectively.
In the same order, the values of `C=CC(=O)Nc1cc(Nc2nccc(-c3cn(C)c4ccccc34)n2)c(OC)cc1N(C)CCN(C)CC(=O)NCCOCCOCC(=O)N[C@H](C(=O)N1C[C@H](O)C[C@H]1C(=O)NCc1ccc(-c2scnc2C)cc1)C(C)(C)C` are 768 nM and 2370 nM.
In the case of `COc1cc(N2CCN(C)CC2)c(NC(=O)/C(C#N)=C/C(C)(C)NC(=O)CCCCCC(=O)N[C@H](C(=O)N2C[C@H](O)C[C@H]2C(=O)NCc2ccc(-c3scnc3C)cc2)C(C)(C)C)cc1Nc1nccc(-c2cn(C)c3ccccc23)n1`, the IC50 was 1390 nM in experiment [1], above 10000 nM in [3] and 5790 nM in experiment [2].
On to `C=CC(=O)Nc1cc(Nc2nccc(-c3cn(C)c4ccccc34)n2)c(OC)cc1N(CCCCCCC(=O)NCCOCCOCC(=O)N[C@H](C(=O)N1C[C@H](O)C[C@H]1C(=O)NCc1ccc(-c2scnc2C)cc1)C(C)(C)C)CCN(C)C`, for which the Activity in experiment [4] is below 20%; in experiment [5] it was 25%; in [6], 23%; in experiment [8], below 20%. Also, the results for the IC50 in experiment [1] and in experiment [2] were 683 nM and 800 nM, respectively.
In the case of `C=CC(=O)N1CCC[C@H](n2c(Nc3ccccc3)nc3cnc(Nc4ccc(N5CCN(CC(=O)NCCOCCOCC(=O)N[C@H](C(=O)N6C[C@H](O)C[C@H]6C(=O)NCc6ccc(-c7scnc7C)cc6)C(C)(C)C)CC5)cc4)nc32)C1`, the IC50 in [1] came out at 59.6 nM; in experiment [2], 282 nM. For the same molecule, the Activity in [9] is below 20%; in [10], 57%; in experiment [11], 50%; in experiment [8], below 20%.
`C=CC(=O)N1CCC[C@H](n2c(Nc3ccccc3)nc3cnc(Nc4ccc(N5CCN(CCCCCCC(=O)N[C@H](C(=O)N6C[C@H](O)C[C@H]6C(=O)NCc6ccc(-c7scnc7C)cc6)C(C)(C)C)CC5)cc4)nc32)C1`: the IC50 is 1.67 nM in experiment [1], above 10000 nM in [7] and 40 nM in experiment [2]. Moreover, the Activity in [9] amounted to 49%; in [10], 70%; in [11], 62%; in experiment [8], 69%.
As for `COc1cc(N(C)CCN(C)C)c(NC(=O)/C=C/CN(C)CCN(C)C(=O)CCCCCCC(=O)N[C@H](C(=O)N2C[C@H](O)C[C@H]2C(=O)NCc2ccc(-c3scnc3C)cc2)C(C)(C)C)cc1Nc1nccc(-c2cn(C)c3ccccc23)n1`, the Activity is below 20% in [4], 24% in experiment [5], below 20% in [6] and below 20% in [8]. The results for the IC50 in experiment [1], in [7] and in experiment [2] were 130 nM, above 10000 nM and 1690 nM, respectively.
`COc1cc(N(C)CCN(C)C)c(NC(=O)/C=C/CN(C)CCCCCCCC(=O)N[C@H](C(=O)N2C[C@H](O)C[C@H]2C(=O)NCc2ccc(-c3scnc3C)cc2)C(C)(C)C)cc1Nc1nccc(-c2cn(C)c3ccccc23)n1`: the Activity is below 20% in experiment [4], 25% in experiment [5], below 20% in experiment [6] and below 20% in [8]. Besides, the IC50 was 67 nM in experiment [1] and 640 nM in experiment [2].
Consider `C=CC(=O)N1CCC[C@@H](n2c(Nc3ccccc3)nc3cnc(Nc4ccc(N5CCN(C)CC5)cc4)nc32)C1`, for which the IC50 is 1.77 nM in [1] and 266 nM in [2].
With `COc1cc(N2CCN(CC(=O)NCCCCCCC(=O)N[C@H](C(=O)N3C[C@H](O)C[C@H]3C(=O)NCc3ccc(-c4scnc4C)cc3)C(C)(C)C)CC2)c(NC(=O)/C(C#N)=C/c2ccncc2)cc1Nc1nccc(-c2cn(C)c3ccccc23)n1`, the 50% inhibitory concentration (IC50) in experiment [1], in experiment [3] and in experiment [2] was above 10000 nM throughout.
As to `CCC(=O)N1CCC[C@H](n2c(Nc3ccccc3)nc3cnc(Nc4ccc(N5CCN(C)CC5)cc4)nc32)C1`, the IC50 in experiment [1] came to 2.48 nM; in experiment [2], 1170 nM.
Take `C=CC(=O)N1CCC[C@H](n2c(Nc3ccccc3)nc3cnc(Nc4ccc(N5CCN(CC(=O)NCCCCCC(=O)N[C@H](C(=O)N6C[C@H](O)C[C@H]6C(=O)NCc6ccc(-c7scnc7C)cc6)C(C)(C)C)CC5)cc4)nc32)C1`: the IC50 in experiment [1] was 36.5 nM; in experiment [2], 250 nM. The Activity in experiment [9] was below 20%; in experiment [10], 60%; in experiment [11], 46%; in [8], 23%.
As for `COc1cc(N(C)CCN(C)C)c(NC(=O)/C=C/CN(C)CCN(C)C(=O)CCCCCC(=O)N[C@H](C(=O)N2C[C@H](O)C[C@H]2C(=O)NCc2ccc(-c3scnc3C)cc2)C(C)(C)C)cc1Nc1nccc(-c2cn(C)c3ccccc23)n1`, the Activity in [4] was below 20%; in [5] it was 25%; in experiment [6] it was below 20%; in experiment [8] it was below 20%. Moreover, the IC50 in [1] was 140 nM; in experiment [2] it was 1470 nM.
As for `C=CC(=O)Nc1cc(Nc2nccc(-c3cn(C)c4ccccc34)n2)c(OC)cc1N(CCCCCCC(=O)NCCCCCCC(=O)N[C@H](C(=O)N1C[C@H](O)C[C@H]1C(=O)NCc1ccc(-c2scnc2C)cc1)C(C)(C)C)CCN(C)C`, the Activity in experiment [4], in experiment [5], in experiment [6] and in experiment [8] was below 20% in each case. The IC50 in experiment [1] turned out to be 110 nM; in [2] it was 730 nM.
Consider `C=CC(=O)N1CCC(n2c(Nc3ccccc3)nc3cnc(Nc4ccc(N5CCN(C)CC5)nc4)nc32)CC1`, for which the results for the IC50 in experiment [1] and in experiment [2] were 3.05 nM and 290 nM, respectively.
Take `C=CC(=O)N1CCC[C@H](n2c(Nc3ccccc3)nc3cnc(Nc4ccc(N5CCN(CC(=O)NCCCCCCC(=O)N[C@H](C(=O)N6C[C@H](O)C[C@H]6C(=O)NCc6ccc(-c7scnc7C)cc6)C(C)(C)C)CC5)cc4)nc32)C1`: the results for the IC50 in experiment [1] and in [2] were 8.93 nM and 127 nM, respectively. The Activity is below 20% in experiment [9], 77% in experiment [10], 63% in [11] and below 20% in experiment [8].
Consider `COc1cc(N(C)CCN(C)C)c(NC(=O)/C=C/CN(C)CCN(C)C(=O)CCCC(=O)N[C@H](C(=O)N2C[C@H](O)C[C@H]2C(=O)NCc2ccc(-c3scnc3C)cc2)C(C)(C)C)cc1Nc1nccc(-c2cn(C)c3ccccc23)n1`, for which the figures for the IC50 in experiment [1] and in experiment [2] were 150 nM and 2760 nM, respectively.
